# Test results taken from ChEMBL document CHEMBL1201862, “PubChem BioAssay data set” (2004).
#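 Results reflect a 48-hour exposure of cells in 96-well plates to compound at five concentrations. GI50 = concentration required for 50% inhibition of growth.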 Activity calls are given as the source filed them. No stated cut-off is given here; in the data, active = GI50 up to about 1.1 µM and inactive = higher.
# Legend:
# Test in all cases: NCI anticancer screen, dose series, 48 h
# [1] = system: LOX IMVI
# [2] = system: SW-620
# [3] = system: OVCAR-8
# [4] = system: HCT-116
# [5] = system: SK-OV-3
# [6] = system: RPMI-8226
# [7] = system: SK-MEL-2
# [8] = system: NCI-H460
# [9] = system: CAKI-1
# [10] = system: COLO 205
# [11] = system: SF-268
# [12] = system: HCT-15
# [13] = system: CCRF-CEM
# [14] = system: NCI-H23
# [15] = system: SK-MEL-5
# [16] = system: OVCAR-5
# [17] = system: NCI-H226
Compound,GI50 [1],GI50 [2],GI50 [3],GI50 [4],GI50 [5],GI50 [6],GI50 [7],GI50 [8],GI50 [9],GI50 [10],GI50 [11],GI50 [12] [µM],GI50 [13],GI50 [14],GI50 [15],GI50 [16],GI50 [17]
O=S(=O)(/C=C/C(=C/c1ccccc1)S(=O)(=O)c1ccccc1)c1ccccc1,0.658 µM (active),2.04 µM (inactive),1.63 µM (inactive),1.72 µM (inactive),1.44 µM (inactive),0.61 µM (active),1.89 µM (inactive),1.78 µM (inactive),1.51 µM (inactive),2.16 µM (inactive),1.91 µM (inactive),1.51,0.778 µM (active),1.93 µM (inactive),–,–,–
Cc1cc(NS(=O)(=O)c2ccc(Nc3c4ccccc4nc4c(C(=O)Nc5ccc(S(N)(=O)=O)cc5)cccc34)cc2)no1,35 µM (inactive),74.3 µM (inactive),51.9 µM (inactive),31.2 µM (inactive),> 100 µM (inactive),> 100 µM (inactive),24.1 µM (inactive),> 100 µM (inactive),> 100 µM (inactive),34.8 µM (inactive),36.9 µM (inactive),> 100,26.5 µM (inactive),47.5 µM (inactive),63.1 µM (inactive),> 100 µM (inactive),–
Cc1cccc(C(C)(C)C)c1NC(=O)C(=O)Cc1nc2ccccc2s1,> 100 µM (inactive),> 100 µM (inactive),> 100 µM (inactive),> 100 µM (inactive),> 100 µM (inactive),> 100 µM (inactive),> 100 µM (inactive),> 100 µM (inactive),> 100 µM (inactive),> 100 µM (inactive),> 100 µM (inactive),> 100,–,> 100 µM (inactive),> 100 µM (inactive),> 100 µM (inactive),> 100 µM (inactive)
CC(/C=C1\CCC(CN(C)C)C1=O)c1cccc(Br)c1 (configuration not stated),–,8.18 µM (inactive),18.2 µM (inactive),8.59 µM (inactive),65.2 µM (inactive),2 µM (inactive),16.7 µM (inactive),29.6 µM (inactive),8.15 µM (inactive),17.9 µM (inactive),21.7 µM (inactive),14.9,2.52 µM (inactive),19.5 µM (inactive),13.8 µM (inactive),22.8 µM (inactive),22.3 µM (inactive)
C#CCN(N=O)C(=O)NCCCCC(NC(=O)OCc1ccccc1)C(=O)OCc1ccccc1 (configuration not stated),14.5 µM (inactive),17.4 µM (inactive),38.9 µM (inactive),32.7 µM (inactive),> 100 µM (inactive),31.9 µM (inactive),40 µM (inactive),98.2 µM (inactive),24 µM (inactive),–,27.6 µM (inactive),33.7,19.3 µM (inactive),34.6 µM (inactive),62.4 µM (inactive),> 100 µM (inactive),> 100 µM (inactive)
CC1OC(n2cc(Cl)c(=O)[nH]c2=O)C=C(OC(=O)c2ccccc2)C1=O (configuration not stated),> 100 µM (inactive),> 100 µM (inactive),> 100 µM (inactive),–,> 100 µM (inactive),> 100 µM (inactive),> 100 µM (inactive),> 100 µM (inactive),> 100 µM (inactive),> 100 µM (inactive),–,> 100,> 100 µM (inactive),> 100 µM (inactive),> 100 µM (inactive),–,–
O=C1CCCc2ccc([N+](=O)[O-])c(O)c21,> 100 µM (inactive),> 100 µM (inactive),> 100 µM (inactive),> 100 µM (inactive),> 100 µM (inactive),–,39 µM (inactive),> 100 µM (inactive),37.9 µM (inactive),> 100 µM (inactive),69.8 µM (inactive),72.9,> 100 µM (inactive),> 100 µM (inactive),> 100 µM (inactive),59.8 µM (inactive),40.8 µM (inactive)
Sc1nnc(/C=C/c2ccc(Cl)c(Cl)c2)[nH]1,> 100 µM (inactive),> 100 µM (inactive),> 100 µM (inactive),> 100 µM (inactive),0.0173 µM (active),–,> 100 µM (inactive),> 100 µM (inactive),–,0.0202 µM (active),> 100 µM (inactive),87.5,> 100 µM (inactive),> 100 µM (inactive),44.8 µM (inactive),> 100 µM (inactive),> 100 µM (inactive)
Cc1noc2cccc(O)c12,> 100 µM (inactive),> 100 µM (inactive),> 100 µM (inactive),> 100 µM (inactive),> 100 µM (inactive),–,> 100 µM (inactive),> 100 µM (inactive),> 100 µM (inactive),> 100 µM (inactive),> 100 µM (inactive),> 100,> 100 µM (inactive),> 100 µM (inactive),> 100 µM (inactive),> 100 µM (inactive),> 100 µM (inactive)
C[N+](C)(C)CC1CCCC/C1=N\OC(=O)c1ccccc1 (configuration not stated),> 100 µM (inactive),> 100 µM (inactive),> 100 µM (inactive),> 100 µM (inactive),> 100 µM (inactive),> 100 µM (inactive),–,> 100 µM (inactive),> 100 µM (inactive),> 100 µM (inactive),> 100 µM (inactive),> 100,> 100 µM (inactive),> 100 µM (inactive),> 100 µM (inactive),> 100 µM (inactive),–
C=C(c1ccccc1N)[C@@]1(O)C[C@H](/C(=C\C)CO)C[C@@H]1NCc1ccccc1,17.1 µM (inactive),21.7 µM (inactive),24.5 µM (inactive),15.3 µM (inactive),21.5 µM (inactive),19.1 µM (inactive),22.2 µM (inactive),20.7 µM (inactive),–,16.7 µM (inactive),30.8 µM (inactive),29,21.2 µM (inactive),29.9 µM (inactive),17.1 µM (inactive),–,15 µM (inactive)
CC(C)c1ccc(C2C3=C(N=C4SCC(=O)N42)C(=O)c2ccccc23)cc1 (configuration not stated),–,> 100 µM (inactive),> 100 µM (inactive),70.6 µM (inactive),> 100 µM (inactive),43.3 µM (inactive),> 100 µM (inactive),> 100 µM (inactive),99.1 µM (inactive),> 100 µM (inactive),37.1 µM (inactive),88.9,57.3 µM (inactive),75.3 µM (inactive),52.6 µM (inactive),> 100 µM (inactive),51.4 µM (inactive)
S=P(c1ccccc1)(c1ccccc1)C1(C2(P(=S)(c3ccccc3)c3ccccc3)CC2)CC1,> 100 µM (inactive),> 100 µM (inactive),> 100 µM (inactive),> 100 µM (inactive),–,–,> 100 µM (inactive),> 100 µM (inactive),–,> 100 µM (inactive),> 100 µM (inactive),> 100,> 100 µM (inactive),> 100 µM (inactive),> 100 µM (inactive),> 100 µM (inactive),> 100 µM (inactive)
NS(=O)(=O)c1cc2c(cc1Cl)NC(/C(=N/NC(=O)c1ccncc1)C1C(=O)NC(=O)NC1=O)=NS2(=O)=O,> 100 µM (inactive),> 100 µM (inactive),> 100 µM (inactive),55.8 µM (inactive),> 100 µM (inactive),> 100 µM (inactive),> 100 µM (inactive),> 100 µM (inactive),> 100 µM (inactive),> 100 µM (inactive),–,> 100,> 100 µM (inactive),–,> 100 µM (inactive),> 100 µM (inactive),–
COC(=O)/C1=C/C2CC(/C=C(/c3ccccc3)C(=O)O1)C2,17.5 µM (inactive),33.7 µM (inactive),23.1 µM (inactive),21.8 µM (inactive),36.7 µM (inactive),18.3 µM (inactive),–,32.6 µM (inactive),–,19.1 µM (inactive),–,18.8,19.5 µM (inactive),17 µM (inactive),17.7 µM (inactive),–,20.4 µM (inactive)
c1ccc2c(c1)c1ccccc1c1n[se]nc21,> 100 µM (inactive),> 100 µM (inactive),50.2 µM (inactive),–,26 µM (inactive),> 100 µM (inactive),> 100 µM (inactive),75.3 µM (inactive),36.5 µM (inactive),> 100 µM (inactive),> 100 µM (inactive),> 100,> 100 µM (inactive),> 100 µM (inactive),> 100 µM (inactive),35.6 µM (inactive),–
O=C(CSc1nc(-c2ccccc2)c(-c2ccccc2)[nH]1)N/N=C/c1ccc(O)cc1,17.9 µM (inactive),30.8 µM (inactive),17.2 µM (inactive),22.5 µM (inactive),24.8 µM (inactive),25.7 µM (inactive),24.5 µM (inactive),20 µM (inactive),–,19.5 µM (inactive),26.6 µM (inactive),–,23.3 µM (inactive),3.76 µM (inactive),–,–,31.3 µM (inactive)
NNC(=O)/C(=C/c1ccc(Cl)c(Cl)c1)NC(=O)c1ccccc1,> 100 µM (inactive),> 100 µM (inactive),> 100 µM (inactive),> 100 µM (inactive),–,38.5 µM (inactive),> 100 µM (inactive),> 100 µM (inactive),–,> 100 µM (inactive),> 100 µM (inactive),–,92.5 µM (inactive),> 100 µM (inactive),> 100 µM (inactive),> 100 µM (inactive),> 100 µM (inactive)
